Test: xn = mol fraction of the nth substance listed
Conditions: 100 kPa

C[P+](c1ccccc1)(c1ccccc1)c1ccccc1.[Br-] + OCCO
viscosity [mPa·s]
Conditions | 293.15 K | 298.15 K | 303.15 K | 308.15 K | 313.15 K | 318.15 K | 323.15 K
x1 = 0.1 | 45.5 | – | 27.4 | 22.37 | – | 15.1 | 12.6
x1 = 0.13 | 56.5 | 43.3 | 33.8 | 27.1 | 21.86 | 18.05 | 14.94
x1 = 0.17 | 74.7 | 55.7 | 43.5 | 34.5 | 27.3 | 21.01 | 17.81
x1 = 0.2 | 100.6 | 74.5 | 56.2 | 43.3 | 34 | 27.2 | 21.91
x1 = 0.25 | 148.7 | 106.7 | 78.9 | 60 | 46.4 | 36.4 | 29
x1 = 0.33 | 225 | 158 | – | 85.5 | – | 50.5 | 39.6

— a compilation of properties of binary mixtures (doi:10.1007/s10953-022-01241-4)
